Where two headings read alike, the source gives them in different places.
Key:
Assay in all cases: KiNativ assay
Type in all cases: binding
[1] = biological target: DGKH (Homo sapiens (Human), UniProt Q86XP1); details: H929 live cell
Description: (§1) Biochemical IC50s of the compounds of the present disclosure against various kinases were measured in a KiNativ assay. Compounds were screened in duplicate at 10 μM in H929 live cell. IC50 was measured via Mass spectroscopy (MS).

[2] = biological target: CDK5 (Homo sapiens (Human), UniProt Q00535); details: H929 live cell
CDK5, sequence (Q00535 whole entry): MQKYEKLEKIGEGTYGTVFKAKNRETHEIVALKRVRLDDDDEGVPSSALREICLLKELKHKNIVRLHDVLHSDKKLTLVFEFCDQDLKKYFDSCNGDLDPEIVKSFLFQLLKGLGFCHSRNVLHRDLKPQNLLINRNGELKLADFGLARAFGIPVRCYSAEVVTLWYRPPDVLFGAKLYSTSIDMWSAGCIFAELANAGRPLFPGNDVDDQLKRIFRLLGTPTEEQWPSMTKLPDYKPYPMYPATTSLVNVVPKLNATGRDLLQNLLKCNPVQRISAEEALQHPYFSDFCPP
Description: as §1

[3] = biological target: MARK3 (Homo sapiens (Human), UniProt P27448); details: H929 live cell
Description: as §1

[4] = biological target: PKD2 (Homo sapiens (Human), UniProt Q9BZL6); details: H929 live cell
Description: as §1

[5] = biological target: MST1 (Homo sapiens (Human), UniProt Q13043); details: H929 live cell
Description: as §1

[6] = biological target: TBK1 (Homo sapiens (Human), UniProt Q9UHD2); details: H929 live cell
Description: as §1

[7] = biological target: PKN1 (Homo sapiens (Human), UniProt Q16512); details: H929 live cell
PKN1, sequence (Q16512 whole entry): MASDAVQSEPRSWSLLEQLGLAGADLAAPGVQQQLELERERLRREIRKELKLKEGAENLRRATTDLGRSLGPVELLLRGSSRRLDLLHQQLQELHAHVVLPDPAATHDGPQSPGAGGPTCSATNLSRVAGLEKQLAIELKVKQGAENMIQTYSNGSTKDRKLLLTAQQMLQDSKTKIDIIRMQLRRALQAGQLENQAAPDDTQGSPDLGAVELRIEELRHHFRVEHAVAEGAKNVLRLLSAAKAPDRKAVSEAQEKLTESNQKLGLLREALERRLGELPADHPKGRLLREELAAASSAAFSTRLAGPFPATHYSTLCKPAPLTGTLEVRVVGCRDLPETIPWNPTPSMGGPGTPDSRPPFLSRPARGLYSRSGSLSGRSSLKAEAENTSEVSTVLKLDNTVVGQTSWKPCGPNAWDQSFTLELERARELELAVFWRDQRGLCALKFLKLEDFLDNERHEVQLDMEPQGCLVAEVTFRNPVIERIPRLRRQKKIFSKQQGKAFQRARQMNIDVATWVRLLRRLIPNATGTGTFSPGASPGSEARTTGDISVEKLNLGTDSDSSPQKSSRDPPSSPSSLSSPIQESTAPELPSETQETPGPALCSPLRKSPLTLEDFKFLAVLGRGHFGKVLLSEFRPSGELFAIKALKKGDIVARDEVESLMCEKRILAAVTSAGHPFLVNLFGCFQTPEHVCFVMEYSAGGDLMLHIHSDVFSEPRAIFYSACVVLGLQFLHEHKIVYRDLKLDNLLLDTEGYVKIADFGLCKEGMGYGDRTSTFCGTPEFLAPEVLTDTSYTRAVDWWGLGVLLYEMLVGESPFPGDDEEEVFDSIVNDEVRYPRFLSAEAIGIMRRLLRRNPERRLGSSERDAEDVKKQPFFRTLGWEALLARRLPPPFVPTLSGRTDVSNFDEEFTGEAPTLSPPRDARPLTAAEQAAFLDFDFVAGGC
Description: as §1

[8] = biological target: FRAP (Homo sapiens (Human), UniProt P42345); details: H929 live cell
Description: as §1

[9] = biological target: PLK1 (Homo sapiens (Human), UniProt P53350); details: H929 live cell
PLK1, sequence (P53350 whole entry): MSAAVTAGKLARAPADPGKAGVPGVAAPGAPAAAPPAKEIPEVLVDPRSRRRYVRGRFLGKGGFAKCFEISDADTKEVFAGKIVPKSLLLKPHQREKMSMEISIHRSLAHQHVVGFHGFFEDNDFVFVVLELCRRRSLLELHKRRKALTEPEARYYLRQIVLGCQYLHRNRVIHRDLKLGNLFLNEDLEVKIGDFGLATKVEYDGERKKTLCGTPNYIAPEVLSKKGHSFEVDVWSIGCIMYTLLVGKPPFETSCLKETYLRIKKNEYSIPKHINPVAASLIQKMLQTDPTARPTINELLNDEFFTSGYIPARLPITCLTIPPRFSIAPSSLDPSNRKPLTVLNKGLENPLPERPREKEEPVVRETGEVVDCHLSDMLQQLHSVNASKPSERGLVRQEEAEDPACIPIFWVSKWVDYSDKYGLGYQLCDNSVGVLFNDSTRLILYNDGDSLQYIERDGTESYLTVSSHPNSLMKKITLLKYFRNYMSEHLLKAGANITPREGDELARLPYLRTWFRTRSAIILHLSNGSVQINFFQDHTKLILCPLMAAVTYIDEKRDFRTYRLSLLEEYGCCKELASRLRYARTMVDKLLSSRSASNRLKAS
Description: as §1

[10] = biological target: TYK2 domain2 (Homo sapiens (Human), UniProt P29597); details: H929 live cell
TYK2 domain2, sequence (P29597 whole entry, the tested form may be a part): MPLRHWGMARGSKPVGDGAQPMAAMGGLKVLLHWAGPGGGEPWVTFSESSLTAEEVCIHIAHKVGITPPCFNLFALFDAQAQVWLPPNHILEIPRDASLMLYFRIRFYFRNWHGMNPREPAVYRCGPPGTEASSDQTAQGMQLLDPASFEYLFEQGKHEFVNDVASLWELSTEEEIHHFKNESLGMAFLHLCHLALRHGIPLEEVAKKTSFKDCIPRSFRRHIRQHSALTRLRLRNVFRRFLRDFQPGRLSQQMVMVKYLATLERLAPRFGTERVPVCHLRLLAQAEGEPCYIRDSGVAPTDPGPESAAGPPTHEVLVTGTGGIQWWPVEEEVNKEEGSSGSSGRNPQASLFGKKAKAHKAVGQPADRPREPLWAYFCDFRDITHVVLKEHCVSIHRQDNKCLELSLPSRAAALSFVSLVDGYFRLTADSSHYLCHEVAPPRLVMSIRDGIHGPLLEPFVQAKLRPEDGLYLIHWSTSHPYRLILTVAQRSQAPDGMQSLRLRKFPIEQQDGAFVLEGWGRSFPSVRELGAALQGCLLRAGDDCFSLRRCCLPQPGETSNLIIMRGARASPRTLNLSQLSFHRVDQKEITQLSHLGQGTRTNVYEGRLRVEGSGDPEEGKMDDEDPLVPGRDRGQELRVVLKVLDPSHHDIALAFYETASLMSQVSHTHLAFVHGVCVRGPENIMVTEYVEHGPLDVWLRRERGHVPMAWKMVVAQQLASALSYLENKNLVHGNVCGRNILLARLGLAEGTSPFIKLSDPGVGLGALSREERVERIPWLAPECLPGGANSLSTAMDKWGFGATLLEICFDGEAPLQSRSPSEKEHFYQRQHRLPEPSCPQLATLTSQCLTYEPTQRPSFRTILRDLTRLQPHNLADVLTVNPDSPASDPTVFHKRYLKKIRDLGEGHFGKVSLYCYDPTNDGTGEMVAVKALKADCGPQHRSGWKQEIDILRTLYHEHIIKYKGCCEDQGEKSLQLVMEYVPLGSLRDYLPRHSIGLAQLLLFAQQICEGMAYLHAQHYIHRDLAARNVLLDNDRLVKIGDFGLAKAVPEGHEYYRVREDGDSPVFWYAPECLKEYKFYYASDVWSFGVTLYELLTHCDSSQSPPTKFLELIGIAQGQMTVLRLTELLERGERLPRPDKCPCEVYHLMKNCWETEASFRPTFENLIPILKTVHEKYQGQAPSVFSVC
Description: as §1

[11] = biological target: RSKL1 (Homo sapiens (Human), UniProt Q96S38); details: H929 live cell
Description: as §1

[12] = tested on: PI4KA, PI4KAP2; details: H929 live cell; for % inhibition: 10 μM, range class
Description: as §1

[13] = biological target: MAP2K1 (Homo sapiens (Human), UniProt Q02750); details: H929 live cell
MAP2K1, sequence (Q02750 whole entry): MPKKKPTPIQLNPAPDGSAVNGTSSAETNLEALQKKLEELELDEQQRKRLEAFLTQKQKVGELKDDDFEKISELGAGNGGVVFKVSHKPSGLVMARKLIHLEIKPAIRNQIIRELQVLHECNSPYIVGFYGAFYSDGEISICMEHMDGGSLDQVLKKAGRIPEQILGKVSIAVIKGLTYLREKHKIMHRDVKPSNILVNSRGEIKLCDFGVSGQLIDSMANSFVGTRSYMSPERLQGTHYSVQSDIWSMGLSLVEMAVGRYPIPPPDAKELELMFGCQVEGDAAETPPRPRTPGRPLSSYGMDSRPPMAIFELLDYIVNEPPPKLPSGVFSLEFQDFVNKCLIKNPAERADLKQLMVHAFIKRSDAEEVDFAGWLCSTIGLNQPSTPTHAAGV
Description: as §1

[14] = biological target: BRAF (Homo sapiens (Human), UniProt P15056); details: H929 live cell
Description: as §1

[15] = biological target: RSK2 domain1 (Homo sapiens (Human), UniProt P51812); details: H929 live cell
Description: as §1

[16] = biological target: MPSK1 (Homo sapiens (Human), UniProt O75716); details: H929 live cell
Description: as §1

[17] = biological target: MAP2K7 (Homo sapiens (Human), UniProt O14733); details: H929 live cell
MAP2K7, sequence (O14733 whole entry): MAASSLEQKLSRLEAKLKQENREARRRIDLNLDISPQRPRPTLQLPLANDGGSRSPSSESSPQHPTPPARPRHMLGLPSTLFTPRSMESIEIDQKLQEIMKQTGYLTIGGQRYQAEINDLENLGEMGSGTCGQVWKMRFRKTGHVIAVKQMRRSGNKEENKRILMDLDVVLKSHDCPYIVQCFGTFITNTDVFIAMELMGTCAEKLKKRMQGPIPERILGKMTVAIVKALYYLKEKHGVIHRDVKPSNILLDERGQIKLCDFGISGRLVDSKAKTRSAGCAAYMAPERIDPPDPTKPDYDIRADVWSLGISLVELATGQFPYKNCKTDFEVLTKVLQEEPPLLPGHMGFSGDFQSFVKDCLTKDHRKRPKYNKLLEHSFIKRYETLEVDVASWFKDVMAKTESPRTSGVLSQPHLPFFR
Description: as §1

[18] = biological target: IKKa (Homo sapiens (Human), UniProt O15111); details: H929 live cell
Description: as §1

[19] = biological target: MAP2K3 (Homo sapiens (Human), UniProt P46734); details: H929 live cell
Description: as §1

[20] = biological target: CK1g2 (Homo sapiens (Human), UniProt P78368); details: H929 live cell
Description: as §1

[21] = biological target: PHKg2 (Homo sapiens (Human), UniProt P15735); details: H929 live cell
Description: as §1

[22] = biological target: SMG1 (Homo sapiens (Human), UniProt Q96Q15); details: H929 live cell
Description: as §1

[23] = tested on: MST4, YSK1; details: H929 live cell; for % inhibition: 10 μM, range class
Description: as §1

[24] = biological target: EphB2 (Homo sapiens (Human), UniProt P29323); details: H929 live cell
Description: as §1

[25] = biological target: NEK9 (Homo sapiens (Human), UniProt Q8TD19); details: H929 live cell
Description: as §1

[26] = biological target: HPK1 (Homo sapiens (Human), UniProt Q92918); details: H929 live cell
Description: as §1

[27] = biological target: CK1a (Homo sapiens (Human), UniProt P48729); details: H929 live cell
CK1a, sequence (P48729 whole entry): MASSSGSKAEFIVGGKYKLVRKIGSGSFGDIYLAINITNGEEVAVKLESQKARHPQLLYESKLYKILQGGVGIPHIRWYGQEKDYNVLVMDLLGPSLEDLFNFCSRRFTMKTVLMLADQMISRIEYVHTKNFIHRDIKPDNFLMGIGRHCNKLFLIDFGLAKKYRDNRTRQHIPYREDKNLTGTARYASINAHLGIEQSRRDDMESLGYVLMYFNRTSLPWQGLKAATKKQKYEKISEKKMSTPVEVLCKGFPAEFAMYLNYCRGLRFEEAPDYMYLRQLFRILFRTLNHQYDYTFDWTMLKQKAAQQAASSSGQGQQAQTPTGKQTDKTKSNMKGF
Description: as §1

[28] = tested on: MARK1, MARK2; details: H929 live cell; for % inhibition: 10 μM, range class
Description: as §1

[29] = biological target: MAP2K5 (Homo sapiens (Human), UniProt Q13163); details: H929 live cell
Description: as §1

[30] = biological target: PFTAIRE1 (Homo sapiens (Human), UniProt O94921); details: H929 live cell
PFTAIRE1, sequence (O94921 whole entry): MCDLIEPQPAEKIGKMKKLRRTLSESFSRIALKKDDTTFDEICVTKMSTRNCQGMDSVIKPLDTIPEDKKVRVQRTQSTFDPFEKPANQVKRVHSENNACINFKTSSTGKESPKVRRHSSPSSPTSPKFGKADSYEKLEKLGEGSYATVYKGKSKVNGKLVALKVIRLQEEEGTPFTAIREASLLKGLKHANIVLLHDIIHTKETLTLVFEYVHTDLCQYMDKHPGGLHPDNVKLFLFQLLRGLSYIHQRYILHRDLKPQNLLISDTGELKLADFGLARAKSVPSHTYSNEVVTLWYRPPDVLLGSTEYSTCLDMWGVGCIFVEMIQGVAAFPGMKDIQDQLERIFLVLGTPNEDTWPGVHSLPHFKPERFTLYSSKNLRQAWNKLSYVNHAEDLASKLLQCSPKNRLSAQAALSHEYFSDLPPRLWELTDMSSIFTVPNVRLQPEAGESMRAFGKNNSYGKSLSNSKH
PFTAIRE1, sequence (Q8ND76 whole entry partner): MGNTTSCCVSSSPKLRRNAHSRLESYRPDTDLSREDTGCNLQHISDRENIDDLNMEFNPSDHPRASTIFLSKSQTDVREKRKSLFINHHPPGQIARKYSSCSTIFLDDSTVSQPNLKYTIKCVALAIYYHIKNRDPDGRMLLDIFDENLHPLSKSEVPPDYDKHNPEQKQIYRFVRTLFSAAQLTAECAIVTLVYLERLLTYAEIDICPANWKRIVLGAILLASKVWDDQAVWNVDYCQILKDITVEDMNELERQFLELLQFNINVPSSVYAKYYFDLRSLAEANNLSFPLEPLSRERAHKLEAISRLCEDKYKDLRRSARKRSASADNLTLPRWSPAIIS
Description: as §1

[31] = tested on: AurA, AurB, AurC; details: H929 live cell; for % inhibition: 10 μM, range class
Description: as §1

[32] = biological target: OSR1 (Homo sapiens (Human), UniProt O95747); details: H929 live cell
Description: as §1

[33] = tested on: MST4; details: H929 live cell; for % inhibition: 10 μM, range class
Description: as §1

[34] = biological target: ULK1 (Homo sapiens (Human), UniProt O75385); details: H929 live cell
Description: as §1

[35] = range class, read-out: % inhibition

COc1cc(NS(=O)(=O)C2CC2)ccc1-c1cnc(N)c(-c2ccc3c(c2)CCNC3=O)c1 [Compound I-50, N-(4-(6-amino-5-(1-oxo-1,2,3,4-tetrahydroisoquinolin-6-yl)pyridin-3-yl)-3-methoxyphenyl) cyclopropanesulfonamide]
inhibition at 10 µM [1, 35]: 0%
inhibition at 10 µM ([1]; read-out: inhibition (10 μM)): 6.3%
inhibition at 10 µM [2, 35]: 0%
inhibition at 10 µM ([2]; read-out: inhibition (10 μM)): 11.3%
inhibition at 10 µM [3, 35]: 0%
inhibition at 10 µM ([3]; read-out: inhibition (10 μM)): -17.3%
inhibition at 10 µM [4, 35]: 50 to 75%
inhibition at 10 µM ([4]; read-out: inhibition (10 μM)): 51.5%
inhibition at 10 µM [5, 35]: > 90%
inhibition at 10 µM ([5]; read-out: inhibition (10 μM)): 97.5%
inhibition at 10 µM [6, 35]: 0%
inhibition at 10 µM ([6]; read-out: inhibition (10 μM)): 31.4%
inhibition at 10 µM [7, 35]: 0%
inhibition at 10 µM ([7]; read-out: inhibition (10 μM)): -39.9%
inhibition at 10 µM [8, 35]: 0%
inhibition at 10 µM ([8]; read-out: inhibition (10 μM)): 21.5%
inhibition at 10 µM [9, 35]: 0%
inhibition at 10 µM ([9]; read-out: inhibition (10 μM)): -11.1%
inhibition at 10 µM [10, 35]: 0%
inhibition at 10 µM ([10]; read-out: inhibition (10 μM)): -21%
inhibition at 10 µM [11, 35]: 0%
inhibition at 10 µM ([11]; read-out: inhibition (10 μM)): 3.2%
% inhibition [12]: 0.0%
inhibition (10 μM) [12]: 24.7%
inhibition at 10 µM [13, 35]: 0%
inhibition at 10 µM ([13]; read-out: inhibition (10 μM)): 17.8%
inhibition at 10 µM [14, 35]: 0%
inhibition at 10 µM ([14]; read-out: inhibition (10 μM)): -35.8%
inhibition at 10 µM [15, 35]: 0%
inhibition at 10 µM ([15]; read-out: inhibition (10 μM)): 21%
inhibition at 10 µM [16, 35]: 0%
inhibition at 10 µM ([16]; read-out: inhibition (10 μM)): 15.7%
inhibition at 10 µM [17, 35]: 0%
inhibition at 10 µM ([17]; read-out: inhibition (10 μM)): 16.4%
inhibition at 10 µM [18, 35]: 0%
inhibition at 10 µM ([18]; read-out: inhibition (10 μM)): -1.9%
inhibition at 10 µM [19, 35]: 0%
inhibition at 10 µM ([19]; read-out: inhibition (10 μM)): -5.7%
inhibition at 10 µM [20, 35]: 75 to 90%
inhibition at 10 µM ([20]; read-out: inhibition (10 μM)): 79.9%
inhibition at 10 µM [21, 35]: 0%
inhibition at 10 µM ([21]; read-out: inhibition (10 μM)): -38.6%
inhibition at 10 µM [22, 35]: 0%
inhibition at 10 µM ([22]; read-out: inhibition (10 μM)): 30.8%
% inhibition [23]: 35-40%
inhibition (10 μM) [23]: 35.4%
inhibition at 10 µM [24, 35]: 0%
inhibition at 10 µM ([24]; read-out: inhibition (10 μM)): 8.2%
inhibition at 10 µM [25, 35]: 0%
inhibition at 10 µM ([25]; read-out: inhibition (10 μM)): 5.9%
inhibition at 10 µM [26, 35]: > 90%
inhibition at 10 µM ([26]; read-out: inhibition (10 μM)): 90.4%
inhibition at 10 µM [27, 35]: 0%
inhibition at 10 µM ([27]; read-out: inhibition (10 μM)): -20.9%
% inhibition [28]: 0.0%
inhibition (10 μM) [28]: −29.5%
inhibition at 10 µM [29, 35]: 0%
inhibition at 10 µM ([29]; read-out: inhibition (10 μM)): -12.1%
inhibition at 10 µM [30, 35]: 0%
inhibition at 10 µM ([30]; read-out: inhibition (10 μM)): -2.4%
% inhibition [31]: 0.0%
inhibition (10 μM) [31]: 17.8%
inhibition at 10 µM [32, 35]: 0%
inhibition at 10 µM ([32]; read-out: inhibition (10 μM)): 16.6%
% inhibition [33]: 0.0%
inhibition (10 μM) [33]: −68.1%
inhibition at 10 µM [34, 35]: 0%
inhibition at 10 µM ([34]; read-out: inhibition (10 μM)): 28.8%

Nc1ncc(-c2ccc(NS(=O)(=O)C3CC3)cc2F)cc1-c1ccc2c(c1)CCNC2=O [Compound I-51, N-(4-(6-amino-5-(1-oxo-1,2,3,4-tetrahydroisoquinolin-6-yl)pyridin-3-yl)-3-fluorophenyl) cyclopropanesulfonamide]
inhibition at 10 µM [1, 35]: 0%
inhibition at 10 µM ([1]; read-out: inhibition (10 μM)): 2.7%
inhibition at 10 µM [2, 35]: 35 to 40%
inhibition at 10 µM ([2]; read-out: inhibition (10 μM)): 37.2%
inhibition at 10 µM [3, 35]: 0%
inhibition at 10 µM ([3]; read-out: inhibition (10 μM)): 4.8%
inhibition at 10 µM [4, 35]: 50 to 75%
inhibition at 10 µM ([4]; read-out: inhibition (10 μM)): 73.2%
inhibition at 10 µM [5, 35]: > 90%
inhibition at 10 µM ([5]; read-out: inhibition (10 μM)): 96.3%
inhibition at 10 µM [6, 35]: 35 to 40%
inhibition at 10 µM ([6]; read-out: inhibition (10 μM)): 35.8%
inhibition at 10 µM [7, 35]: 0%
inhibition at 10 µM ([7]; read-out: inhibition (10 μM)): -72.1%
inhibition at 10 µM [8, 35]: 0%
inhibition at 10 µM ([8]; read-out: inhibition (10 μM)): 25.1%
inhibition at 10 µM [9, 35]: 0%
inhibition at 10 µM ([9]; read-out: inhibition (10 μM)): -20.6%
inhibition at 10 µM [10, 35]: 0%
inhibition at 10 µM ([10]; read-out: inhibition (10 μM)): -23.9%
inhibition at 10 µM [11, 35]: 0%
inhibition at 10 µM ([11]; read-out: inhibition (10 μM)): -22.1%
% inhibition [12]: 0.0%
inhibition (10 μM) [12]: 0.1%
inhibition at 10 µM [13, 35]: 0%
inhibition at 10 µM ([13]; read-out: inhibition (10 μM)): -26.2%
inhibition at 10 µM [14, 35]: 0%
inhibition at 10 µM ([14]; read-out: inhibition (10 μM)): -41.8%
inhibition at 10 µM [15, 35]: 35 to 40%
inhibition at 10 µM ([15]; read-out: inhibition (10 μM)): 49.9%
inhibition at 10 µM [16, 35]: 35 to 40%
inhibition at 10 µM ([16]; read-out: inhibition (10 μM)): 43.9%
inhibition at 10 µM [17, 35]: 0%
inhibition at 10 µM ([17]; read-out: inhibition (10 μM)): 12.2%
inhibition at 10 µM [18, 35]: 0%
inhibition at 10 µM ([18]; read-out: inhibition (10 μM)): -17.3%
inhibition at 10 µM [19, 35]: 0%
inhibition at 10 µM ([19]; read-out: inhibition (10 μM)): 0.9%
inhibition at 10 µM [20, 35]: 75 to 90%
inhibition at 10 µM ([20]; read-out: inhibition (10 μM)): 84.1%
inhibition at 10 µM [21, 35]: 0%
inhibition at 10 µM ([21]; read-out: inhibition (10 μM)): -45.4%
inhibition at 10 µM [22, 35]: 50 to 75%
inhibition at 10 µM ([22]; read-out: inhibition (10 μM)): 55.8%
% inhibition [23]: 50-75%
inhibition (10 μM) [23]: 68.1%
inhibition at 10 µM [24, 35]: 0%
inhibition at 10 µM ([24]; read-out: inhibition (10 μM)): 8.8%
inhibition at 10 µM [25, 35]: 0%
inhibition at 10 µM ([25]; read-out: inhibition (10 μM)): -20.8%
inhibition at 10 µM [26, 35]: 75 to 90%
inhibition at 10 µM ([26]; read-out: inhibition (10 μM)): 83.5%
inhibition at 10 µM [27, 35]: 0%
inhibition at 10 µM ([27]; read-out: inhibition (10 μM)): -34.7%
% inhibition [28]: 0.0%
inhibition (10 μM) [28]: 9.3%
inhibition at 10 µM [29, 35]: 0%
inhibition at 10 µM ([29]; read-out: inhibition (10 μM)): -4%
inhibition at 10 µM [30, 35]: 0%
inhibition at 10 µM ([30]; read-out: inhibition (10 μM)): 8.8%
% inhibition [31]: 50-75%
inhibition (10 μM) [31]: 53.2%
inhibition at 10 µM [32, 35]: 0%
inhibition at 10 µM ([32]; read-out: inhibition (10 μM)): 8.8%
% inhibition [33]: 0.0%
inhibition (10 μM) [33]: 33.9%
inhibition at 10 µM [34, 35]: 35 to 40%
inhibition at 10 µM ([34]; read-out: inhibition (10 μM)): 40%

From patent publication US10710978B2, “STK4 inhibitors for treatment of hematologic malignancies” (Dana-Farber Cancer Institute, Inc., priority 2015, dated 2020)
